Consider 2 compounds from ChEMBL document CHEMBL1158859, “Antiprotozoal compounds from Asparagus africanus” (J Nat Prod, 1997).

A short description of test [1]: Selectivity index, ratio of IC50 for human lymphocyte to IC50 for Leishmania major.
Test [2] in a line: Inhibition of phytohemagglutininin A-induced human lymphocyte proliferation assessed as radiolabeled [14C]thymidine uptake. Type of test: cell-based.
Test [3] has as its system Plasmodium falciparum. Put plainly: Antiplasmodial activity against chloroquine-susceptible Plasmodium falciparum 3D7 after 24 hrs by [3H]hypoxanthine uptake. Type of test: functional, organism-based.
Test [4] in a line: Selectivity index, ratio of IC50 for human lymphocyte to IC50 for chloroquine-resistant Plasmodium falciparum Dd2.
Test [5] relates to Plasmodium falciparum. In words: Antiplasmodial activity against Plasmodium falciparum schizonts assessed as [3H]hypoxanthine incorporation by liquid scintillation counting. Particulars: Dd2. It is filed as functional, organism-based.
Test [6] in a line: Selectivity index, ratio of IC50 for human lymphocyte to IC50 for chloroquine-susceptible Plasmodium falciparum 3D7.
In test [7] the test system is Plasmodium falciparum. Put plainly: Antiplasmodial activity against chloroquine-resistant Plasmodium falciparum Dd2 after 24 hrs by [3H]hypoxanthine uptake. It is filed as functional, organism-based.
For a further test, the system named is Leishmania major. In words: Antileishmanial activity against Leishmania major promastigotes assessed as inhibition of [3H]thymidine uptake after 18 hrs by scintillation counting. Type of test: functional, organism-based.
Test [8] in a line: Selectivity index, ratio of IC50 for human lymphocyte to IC50 for chloroquine-susceptible Plasmodium falciparum K39.
The subject of test [9] is Plasmodium falciparum. Put plainly: Antiplasmodial activity against chloroquine-resistant Plasmodium falciparum V1/S after 48 hrs by [3H]hypoxanthine uptake. It is filed as functional, organism-based.
Test [10] has as its system Plasmodium falciparum. In words: Antiplasmodial activity against chloroquine-sensitive Plasmodium falciparum K39 after 48 hrs by [3H]hypoxanthine uptake. Type of test: functional, organism-based.
Test [11] is described as follows: Selectivity index, ratio of IC50 for human lymphocyte to IC50 for chloroquine-resistant Plasmodium falciparum V1/S.

With `C=C[C@H](/C=C\c1ccc(O)cc1)c1ccc(O)cc1` [NYASOL], the results for the “Ratio IC50” value in test [1], in [4] and in [6] were 4.1, 16.7 and 16.7, respectively. Moreover, the IC50 (usually the concentration needed to halve the response being measured) came to 200 µM in [2]; 12 µM in the test with Plasmodium falciparum [3]; 12 µM with Plasmodium falciparum [5]; 49 µM in the test on Plasmodium falciparum [7]; 12 µM in the test with Leishmania major.
Turning to `C[C@@H]1CC[C@@]2(OC1)O[C@H]1C[C@H]3C4=CCC5=CC(=O)[C@@H](O)C[C@]5(C)[C@H]4C[C@H](O)[C@]3(C)[C@H]1[C@@H]2C` [MUZANZAGENIN], the “Ratio IC50” value in [8] is reported as 2.1; in [1], 1.8; in [11], 0.8; in [4], 8; in test [6] it was 5.6. The Activity result in the test on Plasmodium falciparum [9], in the test on Plasmodium falciparum [10], in the test with Plasmodium falciparum [3], in the test with Plasmodium falciparum [5] and in the test with Leishmania major was “Dose-dependent effect” throughout. Further, the half-inhibitory concentration (IC50) in the test with Plasmodium falciparum [9] was 163 µM; in the test on Plasmodium falciparum [10], 61 µM; in [2] it was 129 µM; in the test with Plasmodium falciparum [3], 23 µM; in the test on Plasmodium falciparum [5] it was 16 µM; in the test on Leishmania major, 70 µM.
